This is an account of results in patent US12611443B2, “Methods and compositions related to therapeutic peptides for cancer therapy” (THE UNIVERSITY OF CHICAGO, priority 2018, dated 2026).

One data set deals with hCD95. Put plainly: Cleavage of recombinant human CD95 proteins/peptides by ELANE (SDS-PAGE, mass spectrometry). It counts as biochemical. To be noted: recombinant aa 1-173 and aa 212-335. As to the method:
Identification of ELANE cleavage sites in CD95 by mass spectrometry. Recombinant human C-terminal CD95 (aa 212-335, MyBioSource, 10 μg) or recombinant N-terminal CD95 (aa 1-173, ThermoFisher Scientific, 10 μg) were digested with human ELANE (0.1 μg) for 2 h at 37° C., and reactions were stopped with SDS-PAGE loading buffer. Proteins were run on 20% SDS-PAGE gels, stained with Coomassie Blue (ThermoFisher Scientific), and bands were excised for mass spectrometric analyses. Proteins were extracted from excised bands.
Analysis of recombinant peptides by mass spectrometry. Recombinant peptides (10 μM) corresponding to aa 214-([…])-231 (SEQ ID NO:6) or 317-([…])-335 (SEQ ID NO:7) of human CD95 (ThermoFisher Scientific) were incubated with ELANE (0.1-0.2 μM) at 37° C. for 15-30 min. Reactions were stopped with 0.1% formic acid.

Another data set deals with tumor immune cells. Put plainly: Tumor immune cell analysis by flow cytometry. Format: in vivo, mice. On the procedure: Tumor immune cell analysis. […] Cells were labeled with various antibodies and analyzed by flow cytometry. Data were quantified by FlowJo v.10.4.1. Antibodies included: CD45 (47-0451), CD11b (25-0112), MHCII (11-5321), CD4 (17-0041), CD8 (12-0081), CD44 (25-0441) from ThermoFisher Scientific; CD3 (560527), CD62L (561917), from BD Biosciences, and Ly6G (127614) from BioLegend.
(§1) Assessment of potential side-effects. ELANE or PMSF-ELANE (11.6 μg/100 μL) were injected into the 4th mammary fat pad of the right ventral side pad of tumor-free C57BL/6 mice once/day for 5 days. One day after the last injection, mice were studied for potential side-effects. Body weight and spleen weight were measured. Apoptosis at the injection site was studied by isolating, fixing, and staining mammary adipose tissue for TUNEL, cCASP3, and cPARP using identical methods described for tumors above. Mammary adipose tissue immune cell populations at the injection site were determined by flow cytometry using identical methods described for tumors above. Liver function was assessed by measuring plasma ALT activity with the Alanine Transaminase Colorimetric Activity Assays Kit (Cayman Chemical).
(A flow cytometer gives signals particle by particle.)

The test system of a further data set is CD95. Put plainly: CD95 cleavage in cancer cells by western blotting. It counts as cell-based. On the procedure:
FIGS. 1A-1K. ELANE cleaves CD95 to selectively kill cancer cells. (A): Heatmap summary of ELANE's effects on survival, stress, and apoptosis pathways in cancer cells and healthy cells. (B-C): Cancer cells were treated with ELANE (100 nM) and CD95 cleavage was assessed by western blotting using anti-N-terminal (B) or anti-C-terminal antibodies (C). *, lower molecular weight CD95 fragment. (D): Cancer cells or non-cancer cells were transduced to overexpress CD95 proteins, and effects on ELANE-mediated apoptosis were quantified by ANXAS at 30 min. n=2/group. See FIG. 1I for transduction and CD95 over-expression. (E): Cleavage of recombinant human CD95 N-terminal (aa 1-173) or C-terminal (aa 212-335) proteins by ELANE was assessed by SDS-PAGE and Coomassie blue staining. (F): Bands from (E) were digested with trypsin and analyzed by mass spectrometry to identify putative ELANE cleavage sites (i.e., peptides with non-tryptic ends). Major non-tryptic peptides were quantified by ion chromatograms. (G): Schematic of ELANE cleavage sites in CD95. […] (H): Cleavage of recombinant peptides corresponding to aa 214-231 and aa 317-335 in CD95 by ELANE was monitored by mass spectrometry. […] Effect of Dynasore on cancer cell killing capability of ELANE (measured by calcein-AM). n=6/group. […]
Background: Immunoblotting shows a protein as a band on a membrane.

Data set [1] concerns survival, stress, and apoptosis pathways in normal or non-cancer cells. Put plainly: Killing program in normal or non-cancer cells. Format: cell-based. On the procedure:
(§2) Western Blot Analysis. Cells were lysed with 1% SDS containing protease and phosphatase inhibitors (Sigma), and protein was quantified with the BCA Protein Assay Kit (Pierce). Proteins (10-20 μg) were resolved on 10%, 12.5%, 15%, or 20% SDS-PAGE gels depending on the target protein, transferred to PVDF membranes (Millipore), blocked with 5% BSA (Sigma) in 0.1% TBS/Tween-20 at RT for 2 hrs, stained with primary and secondary antibodies, and visualized using the ECL detection kit (Biorad) and a LI-COR imager. Antibodies—Antibodies against pERK (4370), ERK (4695), pNFκB (3033), NFκB (8242), pJNK (4668), JNK (9252), CASP3 (9662), PARP (9542), H2AX (2595), TUBB (2125) were from Cell Signaling Technology. Antibodies against γH2AX (05-636-I, Millipore), ELANE (68672, Abcam), N-terminal CD95 (3070R, BioVision), and C-terminal CD95 (60196, Proteintech).
(§3) Mitochondrial ROS measurements. Cells were treated with various doses of ELANE for 30 min, washed, labeled with the CM-H2DCFDA dye (ThermoFisher Scientific, 10 μM) for 30 min at 37° C., and fluorescence was quantified by flow cytometry.

In another data set the test system is MDA-MB-231 cells. Put plainly: Cell viability of MDA-MB-231 cells treated with purified ELANE or ECP. To be noted: MDA-MB-231. Format: cell-based, human. On the procedure: In vitro cell viability assays. […] Luminescence was measured using a Victor X3 luminometer (PerkinElmer).
Data set [2] relates to survival, stress, and apoptosis pathways in cancer cells. Put plainly: Killing program in cancer cells (western blot, mitochondrial ROS). Format: cell-based. To be noted: all 6 cancer cell lines tested. As to the method: as §2, §3
Another data set deals with cancer cells. Put plainly: ELANE internalization by cancer cells and effect of endocytosis inhibitor. It counts as cell-based. To be noted: cancer cell lysates, 30 mins. As to the method: FIGS. 1A-1K. ELANE cleaves CD95 to selectively kill cancer cells. (A): Heatmap summary of ELANE's effects on survival, stress, and apoptosis pathways in cancer cells and healthy cells. (B-C): Cancer cells were treated with ELANE (100 nM) and CD95 cleavage was assessed by western blotting using anti-N-terminal (B) or anti-C-terminal antibodies (C). *, lower molecular weight CD95 fragment. (D): Cancer cells or non-cancer cells were transduced to overexpress CD95 proteins, and effects on ELANE-mediated apoptosis were quantified by ANXAS at 30 min. n=2/group. See FIG. 1I for transduction and CD95 over-expression. (E): Cleavage of recombinant human CD95 N-terminal (aa 1-173) or C-terminal (aa 212-335) proteins by ELANE was assessed by SDS-PAGE and Coomassie blue staining. (F): Bands from (E) were digested with trypsin and analyzed by mass spectrometry to identify putative ELANE cleavage sites (i.e., peptides with non-tryptic ends). Major non-tryptic peptides were quantified by ion chromatograms. (G): Schematic of ELANE cleavage sites in CD95. […] (H): Cleavage of recombinant peptides corresponding to aa 214-231 and aa 317-335 in CD95 by ELANE was monitored by mass spectrometry. (I): Cancer cells or non-cancer cells were treated with fluorescein-labeled ELANE for 10 min and uptake was visualized by immunofluorescence. (J): ELANE catalytic activity in cancer cell lysates following exposure to ELANE for 30 mins in the presence and absence of Dynasore (60 μM endocytosis inhibitor). Effect of Dynasore on cancer cell killing capability of ELANE (measured by calcein-AM). n=6/group. (K): Cancer cells or non-cancer cells were transduced to overexpress various CD95 proteins, and cell viability in the absence of ELANE was determined by calcein-AM. n=10/group. *, p<0.05 Student's t-test.

A short description of data set [3]: Assessment of potential side-effects in tumor-free C57BL/6 mice. It counts as in vivo. As to the method:
as §1

“Also recorded” adds a separate entry of the source.

“ELANE: neutrophil elastase, a serine protease released by human PMNs”: in the data set with hCD95, the “cleavage of CD95 N- or C-terminal domain” value is reported as “preferentially cleaved the C-terminal domain; also recorded: degrades the C-terminal domain of purified CD95”. For the same substance, in the data set with tumor immune cells (mammary fat pads of tumor-free mice), the “immune cells at injection site of tumor-free mice” value is “Immune cell increases were not observed”. In the data set with tumor immune cells (three immunocompetent models), the tumor immune cells entry is “increased the number of dendritic cells (DCs), CD8^+ T cells, and CD8^+ T effector cells (CD8^+Teff) in all three immunocompetent models tested”. In addition, in the data set on CD95, the “loss of full-length CD95 after cleavage” value was “did not result in loss of full-length CD95”. Further, in the data set with CD95 (ELANE 100 nM), the “CD95 cleavage in cancer cells” value is “cleaved CD95 in all cancer cells tested”. Besides, the “killing program in normal or non-cancer cells” value in data set [1] was “did not induce this program in all normal or non-cancer cells tested”. The “cell viability, purified protein” value in the data set with MDA-MB-231 cells is given as “killed MDA-MB-231 cells in a dose-dependent manner”. In addition, in data set [2], the “DNA damage (γH2AX)” value is on record as “induced DNA damage”; the “mitochondrial ROS (MT ROS)” value is “increased MT ROS”; the “pro-apoptotic pathways (cCASP3 and cPARP)” value is “activated pro-apoptotic pathways”; the “survival pathways (phosphorylation of ERK, NFκB, or JNK)” value is given as “suppressed at least one survival pathway”. In addition, the “catalytic activity of internalized ELANE” value with cancer cells was “retained its catalytic activity”. Further, the side effects result in data set [3] (ELANE 12 μg/day into mammary fat pads) is “did not produce evident side effects”. Moreover, the “apoptosis at injection site” value in data set [3] (ELANE injected into tumor-free C57BL/6 mice) is on record as “no evidence of apoptosis was found”.
